Laboratory results published in US20120149724A1, “MODULATING ENDOGENOUS BETA-ENDORPHIN LEVELS” (THE GENERAL HOSPITAL CORPORATION, priority 2009, published 2012).
Entries after “also recorded” stand apart in the source; their conditions may differ.

Key:
Sprague-Dawley rats = assay: actimetry (locomotor activity) in rats over a daily tail radiation regimen; type: in vivo; settings: 2 Gy/day tail radiation for 6 weeks; 1 mg/kg ip 15 minutes before actimetry
Experimental: Eight week old male Sprague-Dawley rats underwent a 6-week regimen of 2 Gy/day daily tail radiation of mock exposure. Prior to the start of the regimen, baseline activity was recorded as total distance traveled in 30 minutes in the actimetry chamber. During the regimen and for 2 weeks following the end of the regimen, actimetry measurements were made once per week, and for these measurements, half of the tail-irradiated rats and half of the mock-exposed rats were injected with naloxone (1 mg/kg, ip) 15 minutes prior to actimetry testing, and the other half of tail-irradiated and mock-exposed animals were injected with saline (ip) 15 minutes prior to actimetry testing. In addition, blood was drawn prior to, once weekly during, and once weekly for 2 weeks following the end of the regimen for β-endorphin measurement. […] Top graphs show results for tail-irradiated rats, bottom graphs show results for mock-exposed controls. Left side graphs show results for rats injected with saline prior to actimetry testing, right side graphs show results for rats injected with naloxone prior to actimetry testing. […] Error bars indicate +/−SEM, and (*) indicates p<0.05 by two-tailed Student's t-test with respect to baseline values for that group.

[1] = tested on: tail-irradiated C57BL/6 mice; assay: Straub Tail scoring in tail-irradiated mice; type: in vivo; settings: 10 mg/kg ip after the 17th tail irradiation (5 Gy/day); rescored 20 minutes after injection
Experimental: To obtain the data shown in FIG. 3C, after the 17th irradiation dose, the mice were measured for Straub Tail scores and the irradiated mice were divided into two subgroups. The first subgroup was injected with 10 mg/kg naloxone ip. The second subgroup was injected with saline ip. Straub Tail scores were then rescored 20 minutes after the injection. FIG. 3C uses data obtained by Wild type female mice. […] The saline injection has no effect on the Straub Tail phenotype.
Mice undergoing tail radiation or mock treatment were assessed for Straub Tail according to a slightly modified method of Zarrindast, M. R., Ghadimi, M., Ramezani-Tehrani, B., and Sahebgharani, M. Effect of GABA Receptor Agonists or Antagonists on Morphine-induced Straub Tail in Mice. […] 2006; 116(8): 963-73, by which Straub tail is scored on a scale of 0-2 according to the angle of elevation of the tail from the horizontal plane (0=tail relaxed and no elevation; 1=tail is rigid and slightly elevation 1-10° from horizontal; 1.5=11-45 degree elevation with rigidity at the base of the tail; 2=46-90° elevation with rigidity at the base of the tail). For each measurement, each mouse is scored every 10 seconds for 1 minute, and the final score for each mouse at a given measurement point is the average of these 7 values. […] After the 17th irradiation, all mice were scored as described above immediately following tail radiation. […]

C=CCN1CC[C@]23c4c5ccc(O)c4O[C@H]2C(=O)CC[C@@]3(O)[C@H]1C5 [naloxone]
effect on radiation-induced lethargy (total distance traveled in 30 minutes) (Sprague-Dawley rats): Naloxone-Reversible Lethargy | effect on Straub Tail score [1]: abolished to near mock-treated levels; also recorded: reversed the Straub Tail, similar to mock-treated levels
